The structures appear in SMILES notation.

The record followed here is ChEMBL document CHEMBL5321197, “Computational, in vitro and radiation-based in vivo studies on acetamide quinazolinone derivatives as new proposed purine nucleoside phosphorylase inhibitors for breast cancer” (Eur J Med Chem, 2023).

One assay has as its system MCF7. As to the kind of experiment: Cytotoxicity against human MCF7 cells assessed as reduction in cell viability incubated for 24 hrs by MTT assay. In kind it is functional, cell-based. Conditions: MCF7, 24 h. Background: Formazan colour is commonly taken as a measure of viable cells.
In assay [1] the target is T1, Purine nucleoside phosphorylase (Homo sapiens, UniProt P00491).
T1 sequence (P00491 whole entry): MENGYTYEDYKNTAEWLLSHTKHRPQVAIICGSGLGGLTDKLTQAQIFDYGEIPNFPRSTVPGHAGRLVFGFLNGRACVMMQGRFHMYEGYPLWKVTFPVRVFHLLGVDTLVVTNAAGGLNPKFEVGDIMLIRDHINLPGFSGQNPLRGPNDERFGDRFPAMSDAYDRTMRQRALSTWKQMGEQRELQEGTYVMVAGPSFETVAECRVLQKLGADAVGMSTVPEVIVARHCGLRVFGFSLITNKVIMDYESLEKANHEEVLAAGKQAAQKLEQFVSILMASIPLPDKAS
As to the kind of experiment: Inhibition of PNP (unknown origin) by fluorescent based microplate reader analysis.

In the next assay the test system is Hs-578T. As to the kind of experiment: cells. Format: functional, cell-based. The settings on record: Homo sapiens, 24 h.
In another assay the test system is MCF-10A. Briefly: Cytotoxicity against human MCF-10A cells assessed as reduction in cell viability incubated for 24 hrs by MTT assay. Format: functional, cell-based.
In the next assay the test system is T47D. As to the kind of experiment: Cytotoxicity against human T47D cells assessed as reduction in cell viability incubated for 24 hrs by MTT assay. Format: functional, cell-based.
In a further assay the test system is MDA-MB-468. As to the kind of experiment: Cytotoxicity against human MDA-MB-468 cells assessed as reduction in cell viability incubated for 24 hrs by MTT assay. Format: functional, cell-based. Conditions: MDA-MB-468, 24 h.
In a further assay the test system is BT-549. Briefly: Cytotoxicity against human BT-549 cells assessed as reduction in cell viability incubated for 24 hrs by MTT assay. In kind it is functional, cell-based. Conditions: BT-549, 24 h.
For another assay, the system named is MDA-MB-231. As to the kind of experiment: Cytotoxicity against human MDA-MB-231 cells assessed as reduction in cell viability incubated for 24 hrs by MTT assay. Conditions: MDA-MB-231, 24 h. In kind it is functional, cell-based.

Description for Hs-578T: Cytotoxicity against human Hs-578T cells assessed as reduction in cell viability incubated for 24 hrs by MTT assay

Turning to `COc1cc(NC(=O)CSc2nc3ccc(C)cc3c(=O)n2-c2ccccc2)cc(OC)c1OC`, the IC50 in the assay with MCF7 stood at 158 µM; in assay [1] it was 3.18 µM.
On the same counts, the results for `COc1cc(NC(=O)CSc2nc3ccc(C)cc3c(=O)n2-c2ccccc2)cc(OC)c1` are 8.5 µM and 1.32 µM.
In the case of `COc1cc(NC(=O)Cn2c(=S)n(-c3ccccc3)c(=O)c3cc(C)ccc32)cc(OC)c1`, the IC50 in the assay on MCF7 stood at 9.87 µM.
With `COc1cc(NC(=O)Cn2c(=S)n(-c3ccccc3)c(=O)c3cc(C)ccc32)cc(OC)c1OC`, the IC50 in the assay with MCF7 worked out at 3.73 µM; in assay [1] it was 0.255 µM.
Taken in the same sequence, the figures for `COc1ccc(NC(=O)Cn2c(=S)n(-c3ccccc3)c(=O)c3cc(C)ccc32)cc1OC` were 5.16 µM and 0.338 µM.
As for `Cc1ccc2nc(SCC(=O)NCCc3ccccc3)n(-c3ccccc3)c(=O)c2c1`, the IC50 turned out to be 104 µM in the assay with MCF7 and 1.13 µM in assay [1].
With `CC(=O)c1ccccc1NC(=O)Cn1c(=S)n(-c2ccccc2)c(=O)c2cc(C)ccc21`, the IC50 in the assay on MCF7 came out at 87.2 µM; in assay [1] it was 0.998 µM.
As to `COc1ccc(NC(=O)CSc2nc3ccc(C)cc3c(=O)n2-c2ccccc2)cc1OC`, the values for the IC50 (in the assay on MCF7; in assay [1]) were 383 µM and 5.63 µM, respectively.
For `CCOC(=O)c1ccccc1NC(=O)CSc1nc2ccc(C)cc2c(=O)n1-c1ccccc1`, the figures for the IC50 (in the assay with MCF7; in assay [1]) were 926 µM and 2.12 µM, respectively.
For the compound `CCOC(=O)c1ccccc1NC(=O)Cn1c(=S)n(-c2ccccc2)c(=O)c2cc(C)ccc21`, the IC50 in the assay on Hs-578T came to 22.3 µM; with MCF-10A it was 67.3 µM; with T47D it was 4.54 µM; in the assay on MDA-MB-468, 5.83 µM; with BT-549, 6.84 µM; with MDA-MB-231, 6.01 µM. For the same compound, the IC50 stood at 0.99 µM with MCF7 and 0.159 µM in assay [1].
Turning to `Cc1ccc2c(c1)c(=O)n(-c1ccccc1)c(=S)n2CC(=O)NCCc1ccccc1`, the results for the IC50 (with MCF7; in assay [1]) were 48.1 µM and 0.442 µM, respectively.
Taken in the same sequence, the figures for `CCOC(=O)N1CCC(NC(=O)Cn2c(=S)n(-c3ccccc3)c(=O)c3cc(C)ccc32)CC1` were 1.77 µM and 0.173 µM.
On the same counts, the results for `CCOC(=O)N1CCC(NC(=O)CSc2nc3ccc(C)cc3c(=O)n2-c2ccccc2)CC1` are 31 µM and 1.88 µM.
In the case of `CC(=O)c1ccccc1NC(=O)CSc1nc2ccc(C)cc2c(=O)n1-c1ccccc1`, the IC50 in the assay on MCF7 is 278 µM; in assay [1], 3.35 µM.
For the compound `COc1cc2ncnc(Nc3ccc(F)c(Cl)c3)c2cc1OCCCN1CCOCC1` [GEFITINIB], in the assay with T47D, the IC50 was found to be 3.47 µM.
On to `Nc1nc2c(Cc3cccnc3)c[nH]c2c(=O)[nH]1` [PELDESINE], for which, in assay [1], the IC50 was found to be 0.041 µM.

In general, IC50 refers to the point on the concentration scale where inhibition reaches its midpoint.
